Test results: ChEMBL document CHEMBL1275577, “Study of the in vitro activities of rifaximin and comparator agents against 536 anaerobic intestinal bacteria from the perspective of potential utility in pathology involving bowel flora” (Antimicrob Agents Chemother, 2009)

Columns and labels:
[1] = system: Peptoniphilus asaccharolyticus; assay: Antimicrobial activity against Peptoniphilus asaccharolyticus by Wadsworth agar dilution method; format: functional
[2] = system: Bifidobacterium dentium; assay: Antimicrobial activity against Bifidobacterium dentium by Wadsworth agar dilution method; format: functional
[3] = system: Clostridium septicum; assay: Antimicrobial activity against Clostridium septicum by Wadsworth agar dilution method; format: functional
[4] = Antimicrobial activity against Bifidobacterium infantis by Wadsworth agar dilution method; format: functional, Bifidobacterium longum subsp. infantis; settings: Bifidobacterium longum
[5] = system: Clostridium hathewayi; assay: Antimicrobial activity against Clostridium hathewayi by Wadsworth agar dilution method; format: functional; settings: Hungatella hathewayi
[6] = system: Lacticaseibacillus rhamnosus; assay: Antimicrobial activity against Lactobacillus rhamnosus by Wadsworth agar dilution method; format: functional
[7] = system: Desulfovibrio fairfieldensis; assay: Antimicrobial activity against Desulfovibrio fairfieldensis by Wadsworth agar dilution method; format: functional
[8] = system: Bacteroides ovatus; assay: Antimicrobial activity against Bacteroides ovatus by Wadsworth agar dilution method; format: functional
[9] = system: Eubacterium biforme; assay: Antimicrobial activity against Eubacterium biforme by Wadsworth agar dilution method; format: functional; settings: Holdemanella biformis
[10] = system: Parvimonas micra; assay: Antimicrobial activity against Peptostreptococcus micros by Wadsworth agar dilution method; format: functional
[11] = system: Holdemania filiformis; assay: Antimicrobial activity against Holdemania filiformis by Wadsworth agar dilution method; format: functional
[12] = system: Cutibacterium acnes; assay: Antimicrobial activity against Propionibacterium acnes by Wadsworth agar dilution method; format: functional
[13] = system: Clostridioides difficile; assay: Antimicrobial activity against Clostridium difficile by Wadsworth agar dilution method; format: functional
[14] = system: Clostridium cadaveris; assay: Antimicrobial activity against Clostridium cadaveris by Wadsworth agar dilution method; format: functional
[15] = system: Hoylesella loescheii; assay: Antimicrobial activity against Prevotella loescheii by Wadsworth agar dilution method; format: functional
[16] = system: Clostridium leptum; assay: Antimicrobial activity against Clostridium leptum by Wadsworth agar dilution method; format: functional
[17] = system: Clostridium scindens; assay: Antimicrobial activity against Clostridium scindens by Wadsworth agar dilution method; format: functional
[18] = system: Peptoniphilus harei; assay: Antimicrobial activity against Peptoniphilus harei by Wadsworth agar dilution method; format: functional
[19] = system: Ruminococcus lactaris; assay: Antimicrobial activity against Ruminococcus lactaris by Wadsworth agar dilution method; format: functional
[20] = system: Fusobacterium nucleatum; assay: Antimicrobial activity against Fusobacterium nucleatum by Wadsworth agar dilution method; format: functional
[21] = system: Tissierella praeacuta; assay: Antimicrobial activity against Clostridium hastiforme by Wadsworth agar dilution method; format: functional
[22] = system: Clostridium tertium; assay: Antimicrobial activity against Clostridium tertium by Wadsworth agar dilution method; format: functional
[23] = system: Clostridium subterminale; assay: Antimicrobial activity against Clostridium subterminale by Wadsworth agar dilution method; format: functional
[24] = system: Lactiplantibacillus plantarum; assay: Antimicrobial activity against Lactobacillus plantarum by Wadsworth agar dilution method; format: functional
[25] = system: Propionibacterium propionicum; assay: Antimicrobial activity against Propionibacterium propionicum by Wadsworth agar dilution method; format: functional; settings: Arachnia propionica
[26] = system: Eggerthella lenta; assay: Antimicrobial activity against Eggerthella lenta by Wadsworth agar dilution method; format: functional
[27] = system: Eubacterium rectale; assay: Antimicrobial activity against Eubacterium rectale by Wadsworth agar dilution method; format: functional; settings: Agathobacter rectalis
[28] = system: Limosilactobacillus reuteri; assay: Antimicrobial activity against Lactobacillus reuteri by Wadsworth agar dilution method; format: functional
[29] = system: Schaalia meyeri; assay: Antimicrobial activity against Actinomyces meyeri by Wadsworth agar dilution method; format: functional
[30] = system: Clostridium butyricum; assay: Antimicrobial activity against Clostridium butyricum by Wadsworth agar dilution method; format: functional
[31] = system: Bacteroides uniformis; assay: Antimicrobial activity against Bacteroides uniformis by Wadsworth agar dilution method; format: functional
[32] = system: Bacteroides caccae; assay: Antimicrobial activity against Bacteroides caccae by Wadsworth agar dilution method; format: functional
[33] = system: Collinsella aerofaciens; assay: Antimicrobial activity against Colinsella aerofaciens by Wadsworth agar dilution method; format: functional
[34] = system: Clostridium perfringens; assay: Antimicrobial activity against Clostridium perfringens by Wadsworth agar dilution method; format: functional
[35] = system: Lactobacillus jensenii; assay: Antimicrobial activity against Lactobacillus jensenii by Wadsworth agar dilution method; format: functional
[36] = system: Desulfovibrio vulgaris; assay: Antimicrobial activity against Desulfovibrio vulgaris by Wadsworth agar dilution method; format: functional; settings: Nitratidesulfovibrio vulgaris
[37] = system: Coprobacillus cateniformis; assay: Antimicrobial activity against Coprobacillus cateniformis by Wadsworth agar dilution method; format: functional
[38] = system: Enterocloster clostridioformis; assay: Antimicrobial activity against Clostridium clostridioforme by Wadsworth agar dilution method; format: functional
[39] = system: Clostridium disporicum; assay: Antimicrobial activity against Clostridium disporicum by Wadsworth agar dilution method; format: functional
[40] = system: Clostridium lactatifermentans; assay: Antimicrobial activity against Clostridium lactatifermentans by Wadsworth agar dilution method; format: functional; settings: Anaerotignum lactatifermentans
[41] = system: Fusobacterium varium; assay: Antimicrobial activity against Fusobacterium varium by Wadsworth agar dilution method; format: functional
[42] = system: Blautia luti; assay: Antimicrobial activity against Ruminococcus luti by Wadsworth agar dilution method; format: functional
[43] = system: Prevotella intermedia; assay: Antimicrobial activity against Prevotella intermedia by Wadsworth agar dilution method; format: functional
[44] = system: Clostridium sp.; assay: Antimicrobial activity against Clostridium sp. by Wadsworth agar dilution method; format: functional
[45] = system: Bifidobacterium adolescentis; assay: Antimicrobial activity against Bifidobacterium adolescentis by Wadsworth agar dilution method; format: functional
[46] = system: Parabacteroides merdae; assay: Antimicrobial activity against Parabacteroides merdae by Wadsworth agar dilution method; format: functional
[47] = system: Bacteroides thetaiotaomicron; assay: Antimicrobial activity against Bacteroides thetaiotaomicron by Wadsworth agar dilution method; format: functional
[48] = system: Flavonifractor plautii; assay: Antimicrobial activity against Clostridium orbiscindens by Wadsworth agar dilution method; format: functional

NC[C@@H]1O[C@H](O[C@H]2[C@@H](O)[C@H](O[C@@H]3[C@@H](O)[C@H](N)C[C@H](N)[C@H]3O[C@H]3O[C@H](CN)[C@@H](O)[C@H](O)[C@H]3N)O[C@@H]2CO)[C@H](N)[C@@H](O)[C@@H]1O [FRAMYCETIN]
128 µg/mL: MIC50 [1] | MIC50 [2] | MIC50 [4] | MIC50 [6] | MIC50 [9] | MIC50 [10] | MIC50 [11] | MIC50 [12] | MIC50 [18] | MIC50 [19] | MIC50 [24] | MIC50 [25] | MIC50 [26] | MIC50 [27] | MIC50 [28] | MIC50 [29] | MIC50 [33] | MIC50 [35] | MIC50 [37] | MIC50 [38] | MIC90 [38] | MIC50 [42] | MIC50 [45]
1020 µg/mL: MIC90 [2] | MIC90 [3] | MIC90 [4] | MIC90 [6] | MIC90 [7] | MIC90 [9] | MIC90 [11] | MIC90 [12] | MIC90 [14] | MIC90 [15] | MIC90 [16] | MIC90 [17] | MIC50 [20] | MIC90 [20] | MIC90 [21] | MIC90 [22] | MIC90 [23] | MIC90 [24] | MIC90 [25] | MIC90 [26] | MIC90 [27] | MIC90 [28] | MIC90 [29] | MIC90 [30] | MIC90 [33] | MIC50 [34] | MIC90 [35] | MIC90 [36] | MIC90 [37] | MIC90 [39] | MIC90 [40] | MIC90 [43] | MIC90 [44] | MIC90 [45] | MIC50 [46]
256 µg/mL: MIC50 [3] | MIC50 [7] | MIC50 [13] | MIC50 [14] | MIC50 [16] | MIC50 [17] | MIC50 [21] | MIC50 [22] | MIC50 [23] | MIC50 [30] | MIC50 [36] | MIC50 [39] | MIC50 [40] | MIC50 [44] | MIC50 [48]
> 1020 µg/mL: MIC50 [8] | MIC90 [8] | MIC50 [31] | MIC90 [31] | MIC50 [32] | MIC90 [32] | MIC90 [34] | MIC90 [41] | MIC90 [46] | MIC50 [47] | MIC90 [47]
64 µg/mL: MIC50 [5]
512 µg/mL: MIC90 [1] | MIC90 [5] | MIC90 [10] | MIC90 [13] | MIC50 [15] | MIC90 [18] | MIC90 [19] | MIC50 [41] | MIC90 [42] | MIC50 [43] | MIC90 [48]
